SMILES strings stand for the structures. In brackets after ≈: the same amount, converted by molar mass.

This is an account of results in patent US12410133B2, “Crystalline (r)-5-carbamoylpyridin-3-yl-2-methyl-4-(3-(trifluoromethoxy)benzyl)piperazine-1-carboxylate, compositions and methods of use thereof” (Celgene Corporation, priority 2018, dated 2025).

Common to all, as to type: physicochemical
Series [1] can be described thus: Interconversion study: competitive slurry of Form A and B. Particulars: competitive slurry, H2O/PhMe, 1-3 weeks. As for the experimental part: An interconversion study of crystal forms was performed. To understand the thermodynamic stability relationship between Form A and B, competitive slurry experiments were performed at RT and 50° C. in water and toluene. Prior to the study, Form A was used to saturate the corresponding solvent before it was filtered to obtain a near-saturated solution. Equal amounts of Form A and B samples were weighed and then mixed with the prepared near-saturated solution to form a new suspension, which was stirred magnetically (˜1000 rpm) at RT and 50° C.

Series [2] is described as follows: Visual solubility assessment of Form B at room temperature. The settings on record: organic solvent or mixture, thermodynamic from solid. As for the experimental part: Approximately 55 to 90 mg of Form B was added into a 4 mL glass vial. Solvent list in Table 18 was added into each of the vial. These samples were stirred for 3 minutes prior to visual solubility assessment.

A short description of series [3]: Solubility of Form B in FaSSIF-v2 and FeSSIF-v2 at 37° C. Particulars: for Final Form: residual solid by XRPD, 2 hr. As for the experimental part: Solubility of Form B was evaluated at 2 hr for Form B in FaSSIF-v2 and FeSSIF-v2 at 37° C. Approximately 10 to 20 mg of Form B sample was added in 0.8 mL of corresponding bio-relevant medium to form a suspension, followed by shaking at 500 rpm at 37° C. After 2 hr, the supernatants were isolated by centrifugation (7200 rpm for 5 min) followed by filtration through […] PTFE membrane and were tested by HPLC concentration and pH. The residual solids were characterized by XRPD. As summarized in Table 17, Form B converted to a new form (Form C) after solubility evaluation, while the solubility in FaSSIF-v2 and FeSSIF-v2 was measured to be 0.12 and 0.080 mg/mL, respectively.

With `C[C@@H]1CN(Cc2cccc(OC(F)(F)F)c2)CCN1C(=O)Oc1cncc(C(N)=O)c1` [Form A + B, (R)-5-carbamoylpyridin-3-yl-2-methyl-4-(3-(trifluoromethoxy)benzyl)piperazine-1-carboxylate], the “Final Form” value in series [1] (50° C.) and in series [1] (RT) was “Form A” throughout.

Regarding `C[C@@H]1CN(Cc2cccc(OC(F)(F)F)c2)CCN1C(=O)Oc1cncc(C(N)=O)c1` [Form B, (R)-5-carbamoylpyridin-3-yl-2-methyl-4-(3-(trifluoromethoxy)benzyl)piperazine-1-carboxylate], the solubility at 3 min in series [2] (2-Me THF, room temperature) is over 810 mg/mL; in series [2] (2-Propanol, room temperature), over 365 mg/mL; in series [2] (Acetone, room temperature), over 430 mg/mL; in series [2] (Acetonitrile, room temperature), over 720 mg/mL; in series [2] (Dichloromethane, room temperature) it was over 830 mg/mL; in series [2] (EtOH, room temperature), over 800 mg/mL. Further, the solubility at 3 min in series [2] (Ethyl Acetate, room temperature) was over 800 mg/mL; in series [2] (H2O/MeCN 1/3 (v/v) Aw~0.9, room temperature), over 730 mg/mL; in series [2] (H2O/MeOH 1/3 (v/v) Aw~0.5, room temperature) it was over 780 mg/mL; in series [2] (Isopropyl Acetate, room temperature), under 810 mg/mL; in series [2] (Nitromethane, room temperature), over 560 mg/mL. Further, the solubility at 2 h in series [3] (FaSSIF-v2, thermodynamic from solid, FaSSIF (pH 6.5), final pH 6.6) was 0.12 mg/mL (≈ 0.274 mM); in series [3] (FeSSIF-v2, thermodynamic from solid, FeSSIF (pH 5.8), final pH 5.9) it was 0.08 mg/mL (≈ 0.182 mM). For the same compound, the “Final Form” value in series [3] (FaSSIF (pH 6.5)) and in series [3] (FeSSIF (pH 5.8)) was “Form C” throughout.

One may read the solubility as the dissolved amount per volume that the medium holds.
